SMILES | melting point
O=C1Cc2ccc(-c3cccs3)cc2Sc2cc(O)cc(O)c21 [Example 81] | 214.3 to 215.3 °C
O=C(Cc1ccc2c(c1)CC(=O)c1c(O)cc(O)cc1O2)C1=CCCCC1 [Example 66] | 173.8 to 175.8 °C
O=C1Cc2ccc(I)cc2Sc2cc(O)cc(O)c21 [Example 8, 3-Iodo-7,9-dihydroxy-10,11-dihydrodibenzo[b,f]thiepin-10-one] | > 250 °C (dec.)
CCC1(CC)C(=O)c2cc(O)c(O)cc2Sc2ccccc21 [Example 3] | 238 to 244.1 °C
CCC1C(=O)c2c(O)cc(O)cc2Sc2ccccc21 (stereo not drawn) [Example 38] | 175 to 177.5 °C
COc1cc(O)c2c(c1)Sc1ccc(Br)cc1CC2=O [Example 14] | 187.5 °C
Nc1cccc(-c2ccc3c(c2)CC(=O)c2c(O)cc(O)cc2S3)c1 [Example 83] | > 200 °C (dec.)
O=C1Cc2ccc(Br)cc2Sc2cc(O)c(O)cc21 [Example 20] | > 250 °C
CC1C(=O)c2ccc(O)cc2Sc2ccccc21 (stereo not drawn) [Example 41] | 190 to 191.6 °C
O=C1Cc2ccc(-c3cccc(Cl)c3)cc2Sc2cc(O)cc(O)c21 [Example 90] | 180.3 to 191.6 °C
O=[N+]([O-])c1cccc(-c2ccc3c(c2)CCc2c(O)cc(O)cc2O3)c1 [Example 120] | 199.6 to 201.8 °C
CSc1ccc2c(c1)Sc1cc(O)cc(O)c1C(=O)C2 [Example 19] | 182.3 to 184.4 °C
O=C(Cc1ccc2c(c1)Oc1cc(O)cc(O)c1C(=O)C2)C1=CCCCC1 [Example 68] | 195.5 to 195.8 °C
CC1(C)C(=O)c2cc(O)c(O)cc2Sc2ccccc21 [Example 31] | 194.2 to 196.1 °C
ON=C1Cc2ccccc2Oc2cc(O)cc(O)c21 [Example 24] | 208 to 213.7 °C
O=C1Cc2ccc(C#Cc3ccccc3)cc2Oc2cc(O)cc(O)c21 [Example 101] | 189.4 to 191.1 °C
Nc1cccc(-c2ccc3c(c2)Oc2cc(O)cc(O)c2C(=O)C3)c1 [Example 74] | 228.3 to 230 °C
CC(=O)c1ccc(-c2ccc3c(c2)CC(=O)c2c(O)cc(O)cc2O3)cc1 [Example 65] | 274 to 279 °C (dec.)
CCC1C(=O)c2cc(O)c(O)cc2Sc2ccc(-c3cc4ccccc4s3)cc21 (stereo not drawn) [Example 172] | 251.4 to 255.5 °C (dec.)
O=C1Cc2cc(-c3cccnc3)ccc2Oc2cc(O)cc(O)c21 [Example 55] | 293.9 to 300.1 °C
Oc1cc(O)c2c(c1)Oc1ccc(-c3ccccc3)cc1CC2 [Example 109] | 176.7 to 179.2 °C

SMILES | melting point
O=C1Cc2cc(-c3ccccc3)ccc2Oc2cc(O)cc(O)c21 [Example 54] | 170.3 to 172 °C
Oc1cc(O)c2c(c1)Sc1ccc(Cl)cc1CC2 [Example 26] | 181.1 to 184.9 °C
Oc1cc(O)c2c(c1)Oc1ccc(-c3cccs3)cc1CC2 [Example 111] | 188.3 to 191.4 °C
O=C1Cc2cc(-c3ccccc3)ccc2Sc2cc(O)cc(O)c21 [Example 78] | 190.8 to 195.3 °C
O=C1Cc2cc(-c3cccc([N+](=O)[O-])c3)ccc2Oc2cc(O)cc(O)c21 [Example 56] | 244.3 to 250.7 °C
CCC1C(=O)c2cc(O)c(O)cc2Sc2cc(-c3ccco3)ccc21 (stereo not drawn) [Example 153] | 242.9 to 248.4 °C
CCCCc1ccc2c(c1)CC(=O)c1c(O)cc(O)cc1S2 [Example 53] | 106.9 to 108.1 °C
CCCCC(=O)c1ccc2c(c1)CCc1c(O)cc(O)cc1O2 [Example 130] | 119.8 to 121.7 °C
O=C1Cc2ccc(-c3cccc(C(F)(F)F)c3)cc2Sc2cc(O)cc(O)c21 [Example 91] | 225.3 to 226.5 °C
O=C1Cc2ccc(-c3ccccc3)cc2Sc2cc(O)cc(O)c21 [Example 87] | 209.7 to 212 °C
O=C1Cc2ccc(-c3ccc(-c4ccccc4)cc3)cc2Oc2cc(O)cc(O)c21 [Example 96] | 261.6 to 263.2 °C
O=C1Cc2ccc(-c3cccc(C(F)(F)F)c3)cc2Oc2cc(O)cc(O)c21 [Example 73] | 183 to 184.7 °C
Oc1cc(O)c2c(c1)Oc1ccc(CCc3ccccc3)cc1CC2 [Example 113] | 151.8 to 152.7 °C
CSc1ccc2c(c1)C=Cc1c(O)cc(O)cc1S2 [Example 28] | 182.9 to 184.4 °C
CC1C(=O)c2c(O)cc(O)cc2Sc2ccccc21 (stereo not drawn) [Example 39] | 152.1 to 153.4 °C
CC(C)(C)c1ccc2c(c1)CCc1c(O)cc(O)cc1S2 [Example 137] | 151.7 to 153.7 °C
N#Cc1ccc2c(c1)CCc1c(O)cc(O)cc1S2 [Example 29] | 237.4 to 238.6 °C
CCC1C(=O)c2cc(O)c(O)cc2Sc2ccc(Br)cc21 (stereo not drawn) [Example 44] | 235.6 to 237.4 °C
C[Si](C)(C)CCc1ccc2c(c1)CCc1c(O)cc(O)cc1O2 | 125.2 to 126.9 °C
O=C1Cc2ccc(-c3ccc(O)cc3O)cc2Oc2cc(O)cc(O)c21 [Example 100] | 239.1 to 242.6 °C
CCC1C(=O)c2cc(O)c(O)cc2Sc2cc(-c3cccc([N+](=O)[O-])c3)ccc21 (stereo not drawn) [Example 175] | 221.8 to 225 °C

SMILES | melting point
O=C1Cc2cc(-c3cccc([N+](=O)[O-])c3)ccc2Sc2cc(O)cc(O)c21 [Example 80] | > 250 °C (dec.)
CCCCc1ccc2c(c1)CC(=O)c1c(O)cc(O)cc1O2 [Example 50] | 105.6 to 106.8 °C
CCC1C(=O)c2cc(O)c(O)cc2Sc2ccc(-c3cc4ccccc4o3)cc21 (stereo not drawn) [Example 161] | 277.4 to 279.2 °C
O=C1Cc2cc(Br)ccc2Sc2cc(O)c(O)cc21 [Example 22] | 285.7 °C (dec.)
CCC1C(=O)c2cc(O)c(O)cc2Sc2cc(-c3ccc(C)cc3)ccc21 (stereo not drawn) [Example 160] | 271.9 to 273.3 °C
Cc1ccccc1-c1ccc2c(c1)CC(=O)c1c(O)cc(O)cc1O2 [Example 62] | 91.8 to 94.8 °C
CCC1C(=O)c2cc(O)c(O)cc2Sc2ccc(-c3ccco3)cc21 (stereo not drawn) [Example 159] | 238.7 to 241.7 °C
Oc1cc(O)c2c(c1)Oc1cc(-c3cccc(C(F)(F)F)c3)ccc1CC2 [Example 117] | 150.2 to 152.6 °C
CON=C(C)c1ccc2c(c1)CCc1c(O)cc(O)cc1S2 [Example 138] | 176.7 to 177.6 °C
Oc1cc(O)c2c(c1)Oc1cc(-c3ccco3)ccc1CC2 [Example 115] | 198.6 to 201.1 °C
O=C1Cc2cc(-c3ccccc3)ccc2Oc2cc(O)c(O)c(O)c21 [Example 88] | 124 to 125.8 °C
Nc1cccc(-c2ccc3c(c2)CCc2c(O)cc(O)cc2O3)c1 [Example 119] | 197.2 to 199.3 °C
O=C1Cc2cc(-c3ccco3)ccc2Oc2cc(O)cc(O)c21 [Example 57] | 171 to 172.7 °C
O=C1Cc2cc(-c3ccc(-c4ccccc4)cc3)ccc2Oc2cc(O)cc(O)c21 [Example 79] | > 250 °C (dec.)
O=C1Cc2cc(Br)ccc2Sc2cc(O)cc(O)c21 [Example 13] | 236.4 to 237.3 °C
Cc1ccc(-c2ccc3c(c2)Oc2cc(O)cc(O)c2CC3)cc1 [Example 112] | 195.1 to 197.1 °C
O=C1Cc2ccc(-c3ccc(O)c(O)c3)cc2Oc2cc(O)cc(O)c21 [Example 98] | 229.8 to 231.6 °C
CSc1ccc2c(c1)CCc1c(O)cc(O)cc1S2 [Example 2, 8-Methylthio-10,11-dihydrodibenzo[b,f]thiepin-1,3-diol] | 161.6 to 163.9 °C
Cc1ccc(-c2ccc3c(c2)Oc2cc(O)cc(O)c2C(=O)C3)cc1 [Example 71] | 208.8 to 210.2 °C
O=CNc1cccc(-c2ccc3c(c2)CC(=O)c2c(O)cc(O)cc2O3)c1 [Example 75] | 241 to 247.08 °C
O=C1Cc2ccc(CCc3ccccc3)cc2Oc2cc(O)cc(O)c21 [Example 51] | 125.9 to 127.7 °C

SMILES | melting point
Oc1cc(O)c2c(c1)Oc1cc(CCc3ccccc3)ccc1CC2 [Example 108] | 169.1 to 174.9 °C
CCC1C(=O)c2cc(O)c(O)cc2Sc2cc(-c3cccc(C(F)(F)F)c3)ccc21 (stereo not drawn) [Example 156] | 109.7 to 111.9 °C
O=C1Cc2ccc(-c3cccc(Cl)c3)cc2Oc2cc(O)cc(O)c21 [Example 69] | 199.9 to 201.4 °C
OCCCc1ccc2c(c1)CCc1c(O)cc(O)cc1O2 [Example 103] | 153.3 to 154.8 °C
O=C1Cc2cc(-c3ccco3)ccc2Sc2cc(O)cc(O)c21 [Example 84] | 243.5 to 248.4 °C (dec.)
CCCc1ccc2c(c1)CC(=O)c1c(O)cc(O)cc1O2 [Example 47] | 121 to 123 °C
CSc1ccc2c(c1)Sc1cc(O)c(O)cc1C(=O)C2 [Example 23] | 232 to 236.9 °C
CCC1C(=O)c2cc(O)c(O)cc2Sc2ccc(SC)cc21 (stereo not drawn) [Example 36] | 199.6 to 200.5 °C
CCC(=O)c1ccc2c(c1)CCc1c(O)cc(O)cc1O2 [Example 10, 8-Propionyl-10,11-dihydrodibenz[b,f]oxepin-1,3-diol] | 159 to 160.3 °C
CCCCCCc1ccc2c(c1)CCc1c(O)cc(O)cc1O2 | 135.6 to 137.6 °C
Oc1cc(O)c2c(c1)Oc1ccc(-c3ccco3)cc1CC2 [Example 114] | 163.6 to 173.9 °C
O=C1Cc2cc(-c3cc4ccccc4o3)ccc2Oc2cc(O)cc(O)c21 [Example 94] | 268.4 to 268.5 °C
O=C(c1ccc2c(c1)CCc1c(O)cc(O)cc1S2)C1CC1 [Example 135] | 142.2 to 143.5 °C
CC1=Cc2cc(O)c(O)cc2Sc2ccccc21 [Example 145] | 68.2 to 70.1 °C
CC(=O)c1cc(-c2ccc3c(c2)CC(=O)c2c(O)cc(O)cc2O3)ccc1C [Example 67] | 228.4 to 230.8 °C
O=C1Cc2ccc(-c3cc4ccccc4o3)cc2Oc2cc(O)cc(O)c21 [Example 95] | 257.9 to 259.9 °C
CCC1C(=O)c2cc(O)c(O)cc2Sc2cc(Br)ccc21 (stereo not drawn) [Example 45] | 227.2 to 229.9 °C
CCC1C(=O)c2c(O)cc(O)cc2Sc2ccc(SC)cc21 (stereo not drawn) [Example 35] | 167.4 to 168.2 °C
